Peptide text beside a SMILES is read from it. * marks the point of attachment. AMC = Cc1cc(=O)oc2cc(N*)ccc12
Key:
Type in all cases: biochemical
[1] = molecular target: T1, human TK1 (Homo sapiens, UniProt P06870); test: Inhibition of TK1 (Ki); details: activated human TK1, substrate H-Pro-Phe-Arg-AMC, 24° C.
T1 construct: purchased R&D Systems
How it was run: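 Trypsin-activated human TK1 (31.25 nM) incubated at 24° C with 0.1 mM H-Pro-Phe-Arg-AMC and compound in Tris pH 7.8, 150 mM NaCl, 0.1% BSA, 0.05% Tween20, 1% DMSO. AMC fluorescence (ex 350/em 450 nm) read kinetically over 16 min; IC50 from four-parameter fit, converted to Ki using substrate KM.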

[2] = molecular target: T2, PKK in kaolin activated human platelet poor plasma (Homo sapiens, UniProt P03952); test: Inhibition of PKK in kaolin activated human PPP; details: 25-750 μg/mL kaolin, global fit, text b200 calls the values IC90;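 further: readout is the rate of fluorogenic substrate cleavage in rfu per min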
T2 construct: Platelet poor plasma (PPP) obtained from human wholeblood; from tissue
Experimental: Platelet poor plasma (PPP) obtained from human wholeblood, anticoagulated with Na-Citrate, is incubated with various concentrations of the test compound together with either 25, 75, 250, or 750 μg/mL kaolin in assay buffer for 20 min at 37° C. such that for each kaolin dose used a concentration response is obtained for the test compound.

[3] = molecular target: T3, Human PKK (Homo sapiens, UniProt P03952); test: Inhibition of PKK using an endpoint assay (human PKK); details: fluorogenic substrate H-Pro-Phe-Arg-AMC, 1 h room temperature, method names human or rat PKK, table does not say which
T3 construct: purchased Enzyme Research Laboratories
How it was run: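 Endpoint fluorescence (ex 355 nm, em 460 nm) after stopping with 1 μM final PPACK II. Buffer: Tris 100 mM pH 7.8, NaCl 150 mM, BSA 0.1%, Tween20 0.05%, with 1% DMSO present; enzyme is human plasma kallikrein.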

[4] = molecular target: T3, Human PKK; test: Inhibition of PKK (Ki); details: substrate KM, enzyme PKK
Experimental: The ability of compounds of formula (I) to inhibit plasma kallikrein (PKK), Factor XIIa (FXIIa), Factor XIa (FXIa), Factor Xa (FXa), Factor IIa (alpha-thrombin; FIIa), plasmin, trypsin, tissue kallikrein 1 (TK1), Factor VIIa (FVIIa), or FVIIa complexed with Tissue Factor, phospholipids and CaCl2 (FVIIa/TF/PL/CaCl2) is determined using the following biochemical assays in assay buffer (100 mM Tris, 150 mM NaCL, adjusted to a pH of 7.8 with HCl, and containing 0.1% (w/v) BSA and 0.05% (v/v) Tween20) in the presence of 1% (v/v) DMSO:
Human PKK (1.78 nM or 0.025 U/mL; Enzyme Research Laboratories) is incubated at 24° C. with 0.25 mM fluorogenic substrate H-Pro-Phe-Arg-AMC (11295 from Bachem) and various concentrations of the test compound in assay buffer. Measurements are performed in a kinetic interval every 2nd minute for 16 min using a Spectramax M5 (Molecular Devices) with the following settings of the wavelength excitation of 350 nm and wavelength emission of 450 nm.
The pIC50 values are then fitted using a four-parametric fitting procedure using GraphPad Prism (version 6; GraphPad Software, Inc.). Respective Ki values are obtained by correction of the IC50 values for the respective KM value of the used substrate (see Table A for the obtained KM values of the used substrates) using the following formula:
[formula] Where the IC50 is in molar and the KM value in mM.

T1 sequence (P06870 25-262): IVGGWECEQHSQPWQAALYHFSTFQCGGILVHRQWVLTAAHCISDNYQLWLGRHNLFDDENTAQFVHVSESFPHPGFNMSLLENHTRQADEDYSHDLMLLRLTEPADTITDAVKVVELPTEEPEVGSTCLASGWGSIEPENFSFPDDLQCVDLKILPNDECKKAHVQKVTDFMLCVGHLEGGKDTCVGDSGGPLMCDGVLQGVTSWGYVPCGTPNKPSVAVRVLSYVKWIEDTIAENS
T2 sequence (P03952 391-638 limits assumed): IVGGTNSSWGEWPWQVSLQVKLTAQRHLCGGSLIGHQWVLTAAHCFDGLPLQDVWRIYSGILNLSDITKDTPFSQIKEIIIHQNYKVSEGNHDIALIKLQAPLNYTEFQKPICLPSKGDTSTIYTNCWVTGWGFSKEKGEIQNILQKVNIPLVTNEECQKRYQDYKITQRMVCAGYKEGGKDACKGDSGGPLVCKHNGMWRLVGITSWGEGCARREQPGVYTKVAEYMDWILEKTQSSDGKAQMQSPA
T2 sequence (P03952 20-390 limits assumed): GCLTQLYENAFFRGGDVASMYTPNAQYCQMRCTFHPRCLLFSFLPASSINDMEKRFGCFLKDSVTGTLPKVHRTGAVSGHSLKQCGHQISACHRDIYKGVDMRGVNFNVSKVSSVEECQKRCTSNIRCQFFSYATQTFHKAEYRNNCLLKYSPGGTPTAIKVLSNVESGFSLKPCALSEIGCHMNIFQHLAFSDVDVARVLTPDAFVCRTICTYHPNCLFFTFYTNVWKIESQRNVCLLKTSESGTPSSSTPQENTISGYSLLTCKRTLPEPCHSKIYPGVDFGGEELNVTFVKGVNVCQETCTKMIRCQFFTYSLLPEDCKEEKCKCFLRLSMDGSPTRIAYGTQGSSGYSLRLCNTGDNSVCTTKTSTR
T3 sequence (P03952 20-390 limits assumed): as above
T3 sequence (P03952 391-638 limits assumed): as the sequence (P03952 391-638 limits assumed) above

For `Cn1cnc2c1CC[C@H]2NC(=O)c1cn(Cc2ccc(N3CC4CC4C3)c(C#N)c2)cn1` (stereo partly drawn) [Example 196, 1-[(4-{3-azabicyclo[3.1.0]hexan-3-yl}-3-cyanophenyl)methyl]-N-[(4R)-1-methyl-1H,4H,5H,6H-cyclopenta[d]imidazol-4-yl]-1H-imidazole-4-carboxamide], the Ki [1] was over 10000 nM, the IC50 [2] was 350 nM and the IC50 [3] was 1.5 nM.

With `Cn1cnc2c1CC[C@H]2NC(=O)c1cnn(Cc2ccc(N3CC4CC4C3)c(C#N)c2F)c1` (stereo partly drawn) [Example 198, 1-[(4-{3-azabicyclo[3.1.0]hexan-3-yl}-3-cyano-2-fluorophenyl)methyl]-N-[(4R)-1-methyl-1H,4H,5H,6H-cyclopenta[d]imidazol-4-yl]-1H-pyrazole-4-carboxamide] the Ki [1] was over 10000 nM, the IC50 [2] was 398 nM and the IC50 [3] was 0.8 nM.

In the case of `Cc1nc(N2CC3CC3C2)ccc1Cn1cc(C(=O)N[C@@H]2CCc3c2ncn3C)c(CO)n1` (stereo partly drawn) [Example 217, 1-[(6-{3-Azabicyclo[3.1.0]hexan-3-yl}-2-methylpyridin-3-yl)methyl]-3-(hydroxymethyl)-N-[(4R)-1-methyl-1H,4H,5H,6H-cyclopenta[d]imidazol-4-yl]-1H-pyrazole-4-carboxamide], the Ki [1] is reported as over 10000 nM, the IC50 [2] is reported as 624 nM and the IC50 [3] is reported as 0.9 nM.

In the case of `Cc1nc(N2CC3C(C2)C3(F)F)ncc1Cn1cc(C(=O)N[C@@H]2CCc3c2ncn3C)cn1` (stereo partly drawn) [Example 218, 1-[(2-{6,6-Difluoro-3-azabicyclo[3.1.0]hexan-3-yl}-4-methylpyrimidin-5-yl)methyl]-N-[(4R)-1-methyl-1H,4H,5H,6H-cyclopenta[d]imidazol-4-yl]-1H-pyrazole-4-carboxamide], the Ki [1] is reported as over 10000 nM, the IC50 [2] is reported as 646 nM and the IC50 [3] is reported as 3.5 nM.

Work on `Cc1cc(=O)oc2cc(NC(=O)[C@H](CCCNC(=N)N)NC(=O)[C@H](Cc3ccccc3)NC(=O)[C@@H]3CCCN3)ccc12` [Example I1295, H-Pro-Phe-Arg-AMC] (H-Pro-Phe-Arg-{AMC}) yielded a Km [4] of 160 µM.
